{"source": "patent US11214594B2", "about": "“Antimicrobial peptide having synergistic antibacterial effect with antibiotics on multidrug resistant bacteria, and use thereof” (priority 2016, dated 2022)", "key": {"[1]": {"system": "B. subtilis", "assay": "microbe, parasite or virus in culture", "type": "cell-based, Bacillus subtilis", "outline": "(§1)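 MIC read-out = lowest peptide level with no bacterial proliferation. Strains diluted in MH medium to 2×10^6 CFU; peptide twofold serial dilutions in MH added 1:1 in microtiter wells.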"}, "[2]": {"system": "MDREC 1229", "assay": "MIC of antibiotic during combined treatment with antimicrobial peptide", "type": "cell-based, Escherichia coli", "outline": "(§2)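 Broth microdilution in MH medium; strains were diluted to 2×10^6 CFU per ml before plating. Peptide was serially diluted stepwise at 2:1 starting from its MIC, and MH-diluted antibiotic was then added to determine MIC. The reversed arrangement was also tested.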"}, "[3]": {"system": "P. aeruginosa", "assay": "microbe, parasite or virus in culture", "type": "cell-based, Pseudomonas aeruginosa", "outline": "as §1"}, "[4]": {"system": "S. aureus", "assay": "microbe, parasite or virus in culture", "type": "cell-based, Staphylococcus aureus", "outline": "as §1"}, "[5]": {"system": "MRSA 3126", "type": "cell-based, Staphylococcus aureus", "settings": "3126", "outline": "as §1"}, "[6]": {"system": "MRSA 3114", "type": "cell-based, Staphylococcus aureus", "settings": "3114", "outline": "as §1"}, "[7]": {"system": "MDREC 1238", "type": "cell-based, Escherichia coli", "outline": "as §1"}, "[8]": {"system": "S. epidermidis", "assay": "microbe, parasite or virus in culture", "type": "cell-based, Staphylococcus epidermidis", "outline": "as §1"}, "[9]": {"system": "E. coli", "assay": "microbe, parasite or virus in culture", "type": "cell-based, Escherichia coli", "settings": "16 h", "outline": "as §1"}, "[10]": {"system": "MDREC 1229", "assay": "microbe, parasite or virus in culture", "type": "cell-based, Escherichia coli", "outline": "as §1"}, "[11]": {"system": "MDRST 8007", "assay": "Minimal inhibitory concentration (MIC), single agent", "type": "cell-based, Salmonella typhimurium", "settings": "agent alone", "outline": "as §1"}, "[12]": {"system": "MDRAB 12035", "assay": "MIC of antibiotic during combined treatment with antimicrobial peptide", "type": "cell-based, Acinetobacter baumannii", "outline": "as §2"}, "[13]": {"settings": "peptide treatment concentration 1 μg/ml"}, "[14]": {"settings": "peptide treatment concentration 2 μg/ml"}, "[15]": {"settings": "peptide treatment concentration 4 μg/ml"}, "[16]": {"settings": "peptide treatment concentration 6 μg/ml"}, "[17]": {"settings": "peptide treatment concentration 8 μg/ml"}, "[18]": {"settings": "peptide treatment concentration 16 μg/ml"}, "[19]": {"settings": "peptide treatment concentration 32 μg/ml"}, "[20]": {"settings": "peptide treatment concentration 64 μg/ml"}}, "note": "Where a SMILES comes first, the peptide text is derived from it. [ ]: non-standard residue; d: D form."}
{"compound": "CC[C@H](C)[C@H](NC(=O)[C@H](CCCCN)NC(=O)[C@H](Cc1c[nH]c2ccccc12)NC(=O)[C@@H](N)CCCNC(=N)N)C(=O)N[C@@H](Cc1ccccc1)C(=O)N[C@@H](CCCCN)C(=O)N[C@@H](CCCCN)C(=O)N[C@H](C(=O)N[C@H](CCCCN)C(=O)N[C@@H](CCCCN)C(=O)N[C@@H](CC(C)C)C(=O)N[C@@H](CC(C)C)C(=O)N[C@@H](Cc1c[nH]cn1)C(=O)N[C@@H](CCCCN)C(=O)N[C@@H](Cc1ccccc1)C(=O)N[C@@H](CCCCN)C(=O)N[C@@H](CCCCN)C(=O)N[C@@H](Cc1ccccc1)C(N)=O)[C@@H](C)CC", "note": "[PapMA-17, RWK IFK KIk KLL HKF KKF-NH2] (H-RWKIFKKI[dK]KLLHKFKKF-NH2; N-terminus assumed)", "values": [{"measurement": "Minimal inhibitory concentration MIC", "setting": "[1]", "value": ">128", "unit": "µg/mL"}, {"measurement": "Antibiotic MIC, Erythromycin", "setting": "[2]; [13]", "value": ">128", "unit": "µg/mL"}, {"measurement": "Antibiotic MIC, Linezolid", "setting": "[2]; [13]", "value": ">128", "unit": "µg/mL"}, {"measurement": "Antibiotic MIC, Vancomycin", "setting": "[2]; [13]", "value": ">128", "unit": "µg/mL"}, {"measurement": "Antibiotic MIC, Erythromycin", "setting": "[2]; [14]", "value": 32, "unit": "µg/mL"}, {"measurement": "Antibiotic MIC, Linezolid", "setting": "[2]; [14]", "value": ">128", "unit": "µg/mL"}, {"measurement": "Antibiotic MIC, Vancomycin", "setting": "[2]; [14]", "value": ">128", "unit": "µg/mL"}, {"measurement": "Antibiotic MIC, Erythromycin", "setting": "[2]; [15]", "value": 16, "unit": "µg/mL"}, {"measurement": "Antibiotic MIC, Linezolid", "setting": "[2]; [15]", "value": 64, "unit": "µg/mL"}, {"measurement": "Antibiotic MIC, Vancomycin", "setting": "[2]; [15]", "value": 64, "unit": "µg/mL"}, {"measurement": "Antibiotic MIC, Erythromycin", "setting": "[2]; [16]", "value": 8, "unit": "µg/mL"}, {"measurement": "Antibiotic MIC, Linezolid", "setting": "[2]; [16]", "value": 16, "unit": "µg/mL"}, {"measurement": "Antibiotic MIC, Vancomycin", "setting": "[2]; [16]", "value": 32, "unit": "µg/mL"}, {"measurement": "Antibiotic MIC, Erythromycin", "setting": "[2]; [17]", "value": 4, "unit": "µg/mL"}, {"measurement": "Antibiotic MIC, Linezolid", "setting": "[2]; [17]", "value": 16, "unit": "µg/mL"}, {"measurement": "Antibiotic MIC, Vancomycin", "setting": "[2]; [17]", "value": 16, "unit": "µg/mL"}, {"measurement": "Antibiotic MIC, Erythromycin", "setting": "[2]; [18]", "value": 0, "unit": "µg/mL"}, {"measurement": "Antibiotic MIC, Linezolid", "setting": "[2]; [18]", "value": 0, "unit": "µg/mL"}, {"measurement": "Antibiotic MIC, Vancomycin", "setting": "[2]; [18]", "value": 0, "unit": "µg/mL"}, {"measurement": "Antibiotic MIC, Erythromycin", "setting": "[2]; [19]", "value": 0, "unit": "µg/mL"}, {"measurement": "Antibiotic MIC, Linezolid", "setting": "[2]; [19]", "value": 0, "unit": "µg/mL"}, {"measurement": "Antibiotic MIC, Vancomycin", "setting": "[2]; [19]", "value": 0, "unit": "µg/mL"}, {"measurement": "Antibiotic MIC, Erythromycin", "setting": "[2]; [20]", "value": 0, "unit": "µg/mL"}, {"measurement": "Antibiotic MIC, Linezolid", "setting": "[2]; [20]", "value": 0, "unit": "µg/mL"}, {"measurement": "Antibiotic MIC, Vancomycin", "setting": "[2]; [20]", "value": 0, "unit": "µg/mL"}, {"measurement": "Minimal inhibitory concentration MIC", "setting": "[3]", "value": 16, "unit": "µg/mL"}, {"measurement": "Minimal inhibitory concentration MIC", "setting": "[4]", "value": ">128", "unit": "µg/mL"}, {"measurement": "Minimal inhibitory concentration MIC", "setting": "[5]", "value": ">128", "unit": "µg/mL"}, {"measurement": "Minimal inhibitory concentration MIC", "setting": "[6]", "value": ">128", "unit": "µg/mL"}, {"measurement": "Minimal inhibitory concentration MIC", "setting": "[7]", "value": 32, "unit": "µg/mL"}, {"measurement": "Minimal inhibitory concentration MIC", "setting": "[8]", "value": ">128", "unit": "µg/mL"}, {"measurement": "Minimal inhibitory concentration MIC", "setting": "[9]", "value": 16, "unit": "µg/mL"}, {"measurement": "Minimal inhibitory concentration MIC", "setting": "[10]", "value": 16, "unit": "µg/mL"}, {"measurement": "Peptide MIC, peptide alone", "setting": "[10]", "value": 16, "unit": "µg/mL"}, {"measurement": "Minimal inhibitory concentration MIC", "setting": "[11]", "value": 64, "unit": "µg/mL"}, {"measurement": "Erythromycin MIC during combined treatment with peptide", "setting": "[12]; [13]", "value": 32, "unit": "µg/mL"}, {"measurement": "Linezolid MIC during combined treatment with peptide", "setting": "[12]; [13]", "value": ">128", "unit": "µg/mL"}, {"measurement": "Vancomycin MIC during combined treatment with peptide", "setting": "[12]; [13]", "value": ">128", "unit": "µg/mL"}, {"measurement": "Erythromycin MIC during combined treatment with peptide", "setting": "[12]; [14]", "value": 16, "unit": "µg/mL"}, {"measurement": "Linezolid MIC during combined treatment with peptide", "setting": "[12]; [14]", "value": 128, "unit": "µg/mL"}, {"measurement": "Vancomycin MIC during combined treatment with peptide", "setting": "[12]; [14]", "value": ">128", "unit": "µg/mL"}, {"measurement": "Erythromycin MIC during combined treatment with peptide", "setting": "[12]; [15]", "value": 8, "unit": "µg/mL"}, {"measurement": "Linezolid MIC during combined treatment with peptide", "setting": "[12]; [15]", "value": 32, "unit": "µg/mL"}, {"measurement": "Vancomycin MIC during combined treatment with peptide", "setting": "[12]; [15]", "value": 128, "unit": "µg/mL"}, {"measurement": "Erythromycin MIC during combined treatment with peptide", "setting": "[12]; [16]", "value": 4, "unit": "µg/mL"}, {"measurement": "Linezolid MIC during combined treatment with peptide", "setting": "[12]; [16]", "value": 32, "unit": "µg/mL"}, {"measurement": "Vancomycin MIC during combined treatment with peptide", "setting": "[12]; [16]", "value": 32, "unit": "µg/mL"}, {"measurement": "Erythromycin MIC during combined treatment with peptide", "setting": "[12]; [17]", "value": 0.5, "unit": "µg/mL"}, {"measurement": "Linezolid MIC during combined treatment with peptide", "setting": "[12]; [17]", "value": 16, "unit": "µg/mL"}, {"measurement": "Vancomycin MIC during combined treatment with peptide", "setting": "[12]; [17]", "value": 16, "unit": "µg/mL"}, {"measurement": "Erythromycin MIC during combined treatment with peptide", "setting": "[12]; [18]", "value": 0.25, "unit": "µg/mL"}, {"measurement": "Linezolid MIC during combined treatment with peptide", "setting": "[12]; [18]", "value": 4, "unit": "µg/mL"}, {"measurement": "Vancomycin MIC during combined treatment with peptide", "setting": "[12]; [18]", "value": 8, "unit": "µg/mL"}, {"measurement": "Erythromycin MIC during combined treatment with peptide", "setting": "[12]; [19]", "value": 0, "unit": "µg/mL"}, {"measurement": "Linezolid MIC during combined treatment with peptide", "setting": "[12]; [19]", "value": 0, "unit": "µg/mL"}]}
